Data taken from US20250171423A1, “PHARMACEUTICAL COMPOUNDS FOR THE TREATMENT OF COMPLEMENT MEDIATED DISORDERS” (Achillion Pharmaceuticals, Inc., priority 2020, published 2025).

What follows are compounds tested against T1, Human complement C1s enzyme (Homo sapiens, UniProt P09871) (assay: Human C1s Enzyme Assay). Settings: human C1s 1.16 nM, 5 min preincubation, substrate Z-L-Lys-SBzl 100 μM, A405; read-out: C1s Protease Activity.
T1 construct: purified from human serum, Complement Technology, Inc; purchased Complement Technology, Inc; host or cells: human serum
T1 sequence (P09871 438-688 limits assumed): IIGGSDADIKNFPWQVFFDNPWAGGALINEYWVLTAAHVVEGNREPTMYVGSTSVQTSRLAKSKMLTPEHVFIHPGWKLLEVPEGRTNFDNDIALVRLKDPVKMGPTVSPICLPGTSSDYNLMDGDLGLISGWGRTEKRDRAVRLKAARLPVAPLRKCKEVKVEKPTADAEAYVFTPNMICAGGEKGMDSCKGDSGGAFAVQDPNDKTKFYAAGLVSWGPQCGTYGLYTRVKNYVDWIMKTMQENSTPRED
T1 sequence (P09871 16-437 partner limits assumed): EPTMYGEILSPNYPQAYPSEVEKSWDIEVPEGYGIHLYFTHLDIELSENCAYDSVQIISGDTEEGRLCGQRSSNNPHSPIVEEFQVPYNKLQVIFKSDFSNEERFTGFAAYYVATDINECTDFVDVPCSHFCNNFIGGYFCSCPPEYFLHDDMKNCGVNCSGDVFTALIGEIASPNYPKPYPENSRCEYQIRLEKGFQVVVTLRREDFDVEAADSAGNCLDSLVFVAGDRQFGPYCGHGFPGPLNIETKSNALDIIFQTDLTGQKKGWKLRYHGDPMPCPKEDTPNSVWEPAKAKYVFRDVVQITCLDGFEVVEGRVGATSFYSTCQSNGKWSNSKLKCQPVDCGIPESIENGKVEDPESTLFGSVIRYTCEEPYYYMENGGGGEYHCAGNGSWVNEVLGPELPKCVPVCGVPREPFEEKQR
Type: biochemical
Method in brief: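 IC50 values were fitted by nonlinear regression to rates measured as A405 every 30 s for 30 min. The thioester substrate Z-L-Lys-SBzl and Ellman's reagent were each at 100 μM. Serum-derived C1s at 1.16 nM final had 5 min of room-temperature preincubation with compound (pH 7.5 Tris buffer, 1 M NaCl).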

Compound | IC50 [nM]
C[C@@]12C[C@@H]1N(C(=O)CNC(=O)c1ccc(Oc3ccccn3)cc1)[C@H](C(=O)NCc1cc(C(=N)N)cs1)C2 [Compound 153, (1S,3S,5S)-N-((4-carbamimidoylthiophen-2-yl)methyl)-5-methyl-2-((4-(pyridin-2-yloxy)benzoyl)glycyl)-2-azabicyclo[3.1.0]hexane-3-carboxamide] | < 100
N=C(N)c1csc(CNC(=O)[C@@H]2C[C@H](OC(F)F)CN2C(=O)CNC(=O)c2ccc(Oc3ccccc3)cc2)c1 [Compound 36, (2S,4S)-N-((4-carbamimidoylthiophen-2-yl)methyl)-4-(difluoromethoxy)-1-((4-phenoxybenzoyl)glycyl)pyrrolidine-2-carboxamide] | < 100
COC[C@@]1(F)C[C@@H](C(=O)N[C@H](C)c2cc(C(=N)N)cs2)N(C(=O)CNC(=O)CCCOc2ccccc2)C1 [Compound 149, (2S,4R)-N-((R)-1-(4-carbamimidoylthiophen-2-yl)ethyl)-4-fluoro-4-(methoxymethyl)-1-((4-phenoxybutanoyl)glycyl)pyrrolidine-2-carboxamide] | < 100
C[C@@H](NC(=O)[C@@H]1CC2(CN1C(=O)CNC(=O)CCCOc1ccccc1)OCCO2)c1cc(C(=N)N)cs1 [Compound 115, (S)-N-((R)-1-(4-carbamimidoylthiophen-2-yl)ethyl)-7-((4-phenoxybutanoyl)glycyl)-1,4-dioxa-7-azaspiro[4.4]nonane-8-carboxamide] | < 100
N=C(N)c1csc(CNC(=O)[C@@H]2CCC(=O)N2C(=O)CNC(=O)c2ccc(Oc3ccccc3)cc2)c1 [Compound 7, (S)-N-((4-carbamimidoylthiophen-2-yl)methyl)-5-oxo-1-((4-phenoxybenzoyl)glycyl)-pyrrolidine-2-carboxamide] | < 100
CC(C)O[C@@H]1C[C@@H](C(=O)N[C@H](C)c2cc(C(=N)N)cs2)N(C(=O)CNC(=O)CCCOc2ccccc2)C1 [Compound 166, (2S,4R)-N-((R)-1-(4-carbamimidoylthiophen-2-yl)ethyl)-4-isopropoxy-1-((4-phenoxybutanoyl)glycyl)pyrrolidine-2-carboxamide] | < 100

Other lines, results leading:

IC50 [nM] | Compound
> 1000 | CC(C)C(NC(=O)[C@@H]1C[C@@H](OC(F)F)CN1C(=O)CNC(=O)c1ccc(Oc2ccccc2)cc1)c1cc(C(=N)N)cs1 (stereo in doubt) [Compound 188, (2S,4R)-N-((S)-1-(4-carbamimidoylthiophen-2-yl)-2-methylpropyl)-4-(difluoromethoxy)-1-((4-phenoxybenzoyl)glycyl)pyrrolidine-2-carboxamide]
< 100 | C[C@@H](NC(=O)[C@@H]1C[C@@]23COCCCCCCCCCCCCCC(=O)N[C@@H](CCOc4ccccc4)C(=O)NCC(=O)N1[C@H]2C3)c1cc(C(=N)N)cs1 [Compound 255, (1R,19S,25S,28S)-N-((R)-1-(4-carbamimidoylthiophen-2-yl)ethyl)-17,20,23-trioxo-19-(2-phenoxyethyl)-3-oxa-18,21,24-triazatricyclo[22.2.2.0^125]octacosane-28-carboxamide]
> 1000 | C[C@@]12C[C@@H]1N(C(=O)CNC(=O)c1ccc(Oc3ccccc3)cc1)[C@H](C(=O)NCc1nnc(C(=N)N)o1)C2 [Compound 201, (1S,3S,5S)-N-((5-carbamimidoyl-1,3,4-oxadiazol-2-yl)methyl)-5-methyl-2-((4-phenoxybenzoyl)glycyl)-2-azabicyclo[3.1.0]hexane-3-carboxamide]
< 100 | COC[C@@H]1C[C@@H](C(=O)N[C@H](C)c2cc(C(=N)N)cs2)N(C(=O)CNC(=O)c2ccc(Oc3ccccc3)cc2)C1 [Compound 253, (2S,4R)-N-((R)-1-(4-carbamimidoylthiophen-2-yl)ethyl)-4-(methoxymethyl)-1-((4-phenoxybenzoyl)glycyl)pyrrolidine-2-carboxamide]
> 1000 | CC(C)C[C@@H](NC(=O)[C@@H]1CC2(CN1C(=O)CNC(=O)CCCOc1ccccc1)OCCO2)c1cc(C(=N)N)cs1 [Compound 173, (S)-N-((R)-1-(4-carbamimidoylthiophen-2-yl)-3-methylbutyl)-7-((4-phenoxybutanoyl)glycyl)-1,4-dioxa-7-azaspiro[4.4]nonane-8-carboxamide]
